# Measurements taken from PMC4657899, “Design, Synthesis and In Vitro Activity of Anticancer Styrylquinolines. The p53 Independent Mechanism of Action” (PLoS ONE, 2015).
# Tests used:
# [1] = tested on: HCT116 (p53-/-); assay: MTS anti-proliferative assay, HCT116 (p53-/-); assay type: cell-based, human; conditions: for IC50: MTS, 72 h incubation, mean ± SD; for times more effective against HCT116 (p53-/-) than against wild type cells: ratio of MTS IC50 values
# Method: (§1) The human colon adenocarcinoma cell line HCT116 along with wild type p53 (p53^+/+) were obtained from the ATCC. The normal human fibroblast cell line GM 07492 and HCT116 with a p53 deletion (p53^-/-) were kindly provided by prof. M. Rusin from Maria Sklodowska-Curie Memorial Cancer Center and Institute of Oncology in Gliwice, Poland. Cells were grown as monolayer cultures in 75 cm^2 flasks (Nunc) in Dulbecco’s modified Eagle’s medium with an antibiotic gentamicin (200 μL/100 mL medium). DMEM for HCT116 were supplemented with 12% heat-inactivated fetal bovine serum (Gibco) and for GM 07492 with 15% fetal bovine serum (Gibco). Cells were cultured under standard conditions at 37°C in a humidified atmosphere at 5% CO2.
# (§2) The cells were seeded in 96-well plates 24 h before the addition of the compounds that were tested. The assay was performed following a 72 h incubation with varying concentrations of the agents that were tested. The results were calculated as IC50 values (using GraphPad Prism 5). Each individual compound was tested in triplicate in a single experiment with each experiment being repeated three times. After a 72 h incubation with the compounds that were tested, 20 μL of The CellTiter 96®AQueous One Solution—MTS (Promega) solution was added to each well (with 100 μL DMEM without phenol red) and incubated for 1 h at 37°C. The optical densities of the samples were analyzed at 490 nm. Results were expressed as a percentage of the control.
# [2] = tested on: HCT116 (p53+/+); assay: MTS anti-proliferative assay, HCT116 (p53+/+); assay type: cell-based, human; conditions: mean ± SD
# Method: as §1, §2
# [3] = tested on: GM 07492; assay: MTS cytotoxicity assay, normal fibroblasts GM 07492; assay type: cell-based; conditions: 72 h incubation, normal human fibroblasts, mean ± SD
# Method: as §1, §2
# [4] = tested on: SK-N-MC cell line; parameters: method as in PMID 17142046; conditions: cited from earlier work
# [5] = tested on: P388 cell line; parameters: method as in PMID 17904844; conditions: cited from earlier work
# [6] = tested on: colon cancer cells; parameters: method as in Arafa et al.; conditions: ref Arafa et al.; cited from earlier work
# [7] = tested on: PARP in HCT-116 cells; assay: Immunoblotting, PARP cleavage; assay type: cell-based, human; conditions: 0, 10, 20, 40 μM
# Method: Specific antibodies were purchased from Sigma-Aldrich (anti-PARP, anti-tubulin and peroxidase-labeled secondary antibodies). Briefly, cellular lysates were prepared by harvesting cells in a Laemmli sample buffer. Proteins were separated on SDS-polyacrylamide gels and electroblotted onto nitrocellulose membranes. After blocking, the membranes were incubated with specific primary antibodies overnight, washed and then incubated with peroxidase-conjugated secondary antibodies. Finally, peroxidase activity was detected with ECL+ reagents (AP Biotech) using a CCD camera LAS-4000 (Fujifilm).
# [8] = tested on: HCT116 -/-; assay: Trypan blue staining test, HCT116 -/-; assay type: cell-based, human; conditions: S2 Table, trypan blue cell counting, 72 h
# Method: (§3) The cells were seeded in 3 cm Petri dishes (Nunc) and incubated at 37°C. After 24h, solutions […]
# (§4) a 72 h incubation with tested compounds, the cells were trypsinize d with 0.05% Trypsin -EDTA solution (Sigma). Then, 90µl of suspension cells transferred into 96 -well plate containing 10µl Trypan blue reagent in wells. The cells were counted under an optical inverted microscope Olympus CKX31. The results from three independent experiment were calculated as IC 50 values using GraphPad Prism 5 software.
# [9] = tested on: HCT116 +/+; assay: Trypan blue staining test, HCT116 +/+; assay type: cell-based, human; conditions: S2 Table, trypan blue cell counting, 72 h
# Method: as §3, §4
# [10] = tested on: Calf-thymus DNA (CT-DNA); assay: Spectrophotometric DNA binding (intercalation) study with CT-DNA; conditions: for % hypochromism / Δε / shift of the wavelength of maximum absorption, alone vs DNA-bound: 18 μM CT-DNA; for % hypochromism: 1.5 h 37°C, Tris-HCl pH 7.9; for % hypochromism / Δε: at the (first) absorption band (CP-31398: 312); for shift of the wavelength of maximum absorption, alone vs DNA-bound / Changes in absorbance: S3 Table; for Changes in absorbance: with CT-DNA
# Method: For the DNA binding studies, Calf-thymus DNA (CT-DNA) was purchased from Sigma Aldrich. The lyophilized CT-DNA was dissolved in 10 mM Tris-HCl, pH 7.9, mixed gently and left overnight at 4°C. Then, the concentration of CT-DNA was determined from the absorbance at 260 nm using an extinction coefficient of 6600 M^-1cm^-1. […] Afterwards, 18 μM CT-DNA was added to the prepared solutions and were incubated for 1.5 h at 37°C with occasional vortexing. Absorption spectra were measured using a Hitachi U-2900 spectrophotometer in range of 200–600 nm. All absorption spectra were imported and compared in OriginPro 8.0.
# [11] = Homo sapiens, HCT-116, 72 h incubation
compound,measurement,setting,value
"Oc1ccccc1C=Cc1ccc2cccc(O)c2n1 [18b, 2 – [2-(2-Hydroxyphenyl)vinyl]quinolin-8-ol]",IC50,"[1]; Homo sapiens, HCT-116",15.2 ± 1.31 µM
same,melting point,,316 °C
same,IC50,[2]; [11],16.1 ± 0.88 µM
COc1cccc(C=Cc2ccc3cccc(O)c3n2)c1 [13b],IC50,"[1]; Homo sapiens, HCT-116",18.4 ± 1.36 µM
same,IC50,[3]; Fibroblast,> 25 µM
same,IC50,[2]; [11],24.6 ± 4.36 µM
"Oc1ccc(C=Cc2ccc3cccc(O)c3n2)c(O)c1 [20b, 2 – [2-(2,4-Dihydroxyphenyl)vinyl]quinolin-8-ol]",IC50,"[1]; Homo sapiens, HCT-116",> 25 µM
same,melting point,,273 °C
same,IC50,[2]; [11],> 25 µM
CC(=O)Oc1ccccc1C=Cc1ccc2cccc(O)c2n1 [3b],IC50,[1],13.5 ± 0.81 µM
same,IC50,[3],> 25 µM
same,IC50,[2]; 72 h incubation,7.32 ± 1.01 µM
Oc1cccc2ccc(/C=C/c3ccc(Cl)cc3)nc12 [I],IC50,[4],0.77 µM
CC(=O)Oc1ccc(C=Cc2ccc3cccc(OC(C)=O)c3n2)c(OC(C)=O)c1 [8b],IC50,[1],> 25 µM
same,IC50,[2]; 72 h incubation,> 25 µM
Cc1ccc2c(n1)C(=O)C(NC(=O)/C=C/c1ccccc1)=CC2=O [IV],IC50,[5],1.44 µM
CC(=O)Oc1ccc(C=Cc2ccc3cccc(OC(C)=O)c3n2)c(OC(C)=O)c1OC(C)=O [14b],IC50,"[1]; Homo sapiens, HCT-116",11.4 ± 1.02 µM
same,melting point,,194 °C
same,IC50,[2]; [11],17.9 ± 1.67 µM
CCOc1ccc(C=Cc2ccc3ccccc3n2)cc1 [2a],IC50,"[1]; Homo sapiens, HCT-116",> 25 µM
same,IC50,[2]; [11],> 25 µM
COc1cc(/C=N/NC(=O)COc2c(Br)cc(Br)c3cccnc23)cnc1O [III],IC50,[6],4.7 µM
"CCOc1ccccc1C=Cc1ccc2cccc(O)c2n1 [15b, 2 – [2-(2-Ethoxyphenyl)vinyl]quinolin-8-ol]",IC50,"[1]; Homo sapiens, HCT-116",12.8 ± 3.53 µM
same,melting point,,100 °C
same,IC50,[2]; [11],15.8 ± 3.32 µM
CC(=O)Oc1cccc2ccc(C=Cc3ccccc3F)nc12 [12b],IC50,"[1]; Homo sapiens, HCT-116",5.78 ± 0.78 µM
same,times more effective against HCT116 (p53-/-) than against wild type cells,[1],2–3 times
same,IC50,[3]; Fibroblast,> 25 µM
same,melting point,,117 °C
same,IC50,[2]; [11],12.1 ± 3.02 µM
CC(=O)Oc1ccccc1C=Cc1ccc2cccc(OC(C)=O)c2n1 [2b],IC50,[1],14.7 ± 1.74 µM
same,IC50,[3],6.92 ± 1.72 µM
same,IC50,[2]; 72 h incubation,8.08 ± 0.56 µM
"Oc1c(Cl)cc(Cl)c2ccc(C=Cc3ccccc3Cl)nc12 [2c, 5,7-Dichloro-2 – [2-(2-chlorophenyl)vinyl]quinolin-8-ol]",melting point,,205 to 210 °C
CC(=O)Oc1cccc(C=Cc2ccc3cccc(O)c3n2)c1 [4b],IC50,[1],10.7 ± 3.76 µM
same,IC50,[3],> 25 µM
same,IC50,[2]; 72 h incubation,7.88 ± 1.98 µM
COc1cc(C=Cc2ccc3cccc(O)c3n2)cc(OC(C)=O)c1OC(C)=O [7b],IC50,"[1]; Homo sapiens, HCT-116",> 25 µM
same,melting point,,172 °C
same,IC50,[2]; [11],> 25 µM
"Oc1cccc2ccc(C=Cc3ccccc3Cl)nc12 [17b, 2 – [2-(2-Chlorophenyl)vinyl]quinolin-8-ol]",IC50,"[1]; Homo sapiens, HCT-116",7.97 ± 3.24 µM
same,IC50,[3]; Fibroblast,20.2 ± 6.52 µM
same,PARP cleavage,[7],clearly observable
same,IC50,[2]; [11],9.84 ± 1.79 µM
Oc1cc(O)c(C=Cc2ccc3cccc(O)c3n2)c(O)c1 [9b],IC50,[1],> 25 µM
same,IC50,[2]; 72 h incubation,> 25 µM
"CCOc1ccccc1C=Cc1ccc2c(Cl)cc(Cl)c(O)c2n1 [1c, 5,7-Dichloro-2 – [2-(2-ethoxyphenyl)vinyl]quinolin-8-ol]",IC50,"[1]; Homo sapiens, HCT-116",3.25 ± 1.81 µM
same,IC50,[3]; Fibroblast,> 25 µM
same,melting point,,100 to 102 °C
same,IC50,[2]; [11],5.93 ± 0.97 µM
CCCCOc1ccc(C=Cc2ccc3ccccc3n2)cc1 [3a],IC50,[1],> 25 µM
same,IC50,[2]; 72 h incubation,> 25 µM
same,IC50,[8],> 25 µM
same,IC50,[9],> 25 µM
"Oc1cccc(C=Cc2ccc3cccc(O)c3n2)c1 [19b, 2 – [2-(3-Hydroxyphenyl)vinyl]quinolin-8-ol]",IC50,"[1]; Homo sapiens, HCT-116",10.6 ± 1.23 µM
same,IC50,[2]; [11],16.3 µM
COc1cccc2c1C(=O)c1c(O)c3c(c(O)c1C2=O)C[C@@](O)(C(=O)CO)C[C@@H]3O[C@H]1C[C@H](N)[C@H](O)[C@H](C)O1 [Doxorubicin],IC50,"[1]; Homo sapiens, HCT-116",1.65 ± 0.21 µM
same,% hypochromism,[10],34.2%
same,% hypochromism,[10]; listed as DOX,"34,2%"
same,Δε,[10],"3235,6 M−1 cm−1"
same,"shift of the wavelength of maximum absorption, alone vs DNA-bound",[10],10
same,Changes in absorbance,[10],hypochromism
same,shift in the wavelength on DNA binding,"[10]; blue shift for 5b, 6b, red shift for doxorubicin",10 nm
same,IC50,[3]; Fibroblast,3.38 ± 1.29 µM
same,IC50,[2]; [11],5.95 ± 0.5 µM
same,IC50,"[8]; Homo sapiens, HCT-116",1.28 µM
same,IC50,"[9]; Homo sapiens, HCT-116",2.83 µM
CC(=O)Oc1cc(OC(C)=O)c(C=Cc2ccc3cccc(OC(C)=O)c3n2)c(OC(C)=O)c1 [10b],IC50,"[1]; Homo sapiens, HCT-116",> 25 µM
same,melting point,,189 °C
same,IC50,[2]; [11],> 25 µM
"CCOc1ccc(C=Cc2ccc3cccc(O)c3n2)cc1 [16b, 2 – [2-(4-Ethoxyphenyl)vinyl]quinolin-8-ol]",IC50,"[1]; Homo sapiens, HCT-116",16.1 ± 4.84 µM
same,melting point,,130 °C
same,IC50,[2]; [11],> 25 µM
"CCOc1ccc(C=Cc2ccc3c(Cl)cc(Cl)c(O)c3n2)cc1 [3c, 5,7-Dichloro-2 – [2-(4-ethoxyphenyl)vinyl]quinolin-8-ol]",IC50,"[1]; Homo sapiens, HCT-116",3.53 ± 0.83 µM
same,% hypochromism,[10],"11,6%"
same,Δε,[10],"557,8 M−1 cm−1"
same,"shift of the wavelength of maximum absorption, alone vs DNA-bound",[10],8
same,Changes in absorbance,[10],hypochromism
same,IC50,[3]; Fibroblast,> 25 µM
same,melting point,,156 to 158 °C
same,IC50,[2]; [11],2.23 µM
Oc1cccc2ccc(C=Cc3ccccc3F)nc12 [11b],IC50,"[1]; Homo sapiens, HCT-116",8.38 ± 1.12 µM
same,times more effective against HCT116 (p53-/-) than against wild type cells,[1],2–3 times
same,IC50,[3]; Fibroblast,> 25 µM
same,melting point,,239 °C
same,IC50,[2]; [11],15.4 ± 2.46 µM
Oc1ccccc1C=Cc1ccc2ccccc2n1 [1a],IC50,[1],14.1 ± 2.24 µM
same,IC50,[3],> 25 µM
same,IC50,[2]; 72 h incubation,17.4 ± 2.2 µM
